Experiments:
[1] = tested on: Human plasma (intrinsic coagulation cascade); test: Activated Partial Thromboplastin Time (aPTT) Assay; settings: concentration that causes a 50% (1.5×) increase of clot time over vehicle
Experimental: Activated partial thromboplastin time (aPTT) is a clotting test that measures the intrinsic coagulation cascade. The test is performed in sodium citrated plasma. Human plasma is made by collecting blood from healthy donors of both genders into Na citrate tubes (Sarstedt coagulation 9NC/10 ml). Blood is centrifuged at 1500×g and the plasma is collected. aPTT is checked on each individual donor and those within the normal range (28-40 seconds) are pooled, aliquoted, and stored at −80 C. Test samples are prepared by spiking inhibitors or vehicle into plasma. These spiked samples are then run on a coagulation analyzer (STA-R Evolution, Stago Diagnostica). In general, the analyzer performs the following steps: Factor XII is activated by addition of ellagic acid (Pacific Hemostasis), and then time to clot is measured after re-calcification of the sample. Inhibition of FXI will cause aPTT clot time to be prolonged. The data is expressed as percent increase over vehicle control clot time and the concentration that causes a 50% (1.5×) percent increase of clot time are reported.

human Factor XIa = human Factor XIa (Homo sapiens (Human), UniProt P03951); test: Factor XIa Assay; type: biochemical; settings: for inhibition at 1 µM: read-out: FXIa % Inh. @ 1000 nM; for IC50: human Factor XIa 0.04 nM, 30 min pre-incubation at 25° C., substrate GPR-AFC, read-out: FXIa IC50
Sequence of human Factor XIa (P03951 388-625): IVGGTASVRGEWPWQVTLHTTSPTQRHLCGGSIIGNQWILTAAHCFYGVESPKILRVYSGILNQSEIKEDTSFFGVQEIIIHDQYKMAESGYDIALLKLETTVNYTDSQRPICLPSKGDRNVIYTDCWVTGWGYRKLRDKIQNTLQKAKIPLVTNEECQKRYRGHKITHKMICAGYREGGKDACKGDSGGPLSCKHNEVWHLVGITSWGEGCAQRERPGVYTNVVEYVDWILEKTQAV
Sequence of human Factor XIa (P03951 19-387 partner): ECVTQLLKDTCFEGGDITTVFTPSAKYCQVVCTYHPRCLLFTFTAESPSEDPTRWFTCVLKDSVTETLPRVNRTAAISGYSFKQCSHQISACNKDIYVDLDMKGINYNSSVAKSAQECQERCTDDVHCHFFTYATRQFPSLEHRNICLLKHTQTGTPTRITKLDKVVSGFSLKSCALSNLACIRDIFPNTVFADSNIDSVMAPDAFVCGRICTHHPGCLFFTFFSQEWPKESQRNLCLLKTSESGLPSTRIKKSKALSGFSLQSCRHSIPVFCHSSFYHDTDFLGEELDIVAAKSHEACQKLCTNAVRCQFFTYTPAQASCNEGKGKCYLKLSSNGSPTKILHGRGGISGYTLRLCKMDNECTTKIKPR
Experimental: The effectiveness of a compound of the present invention as an inhibitor of Coagulation Factor XIa can be determined using a relevant purified serine protease, and an appropriate synthetic substrate. The rate of hydrolysis of the chromogenic or fluorogenic substrate by the relevant serine protease was measured both in the absence and presence of compounds of the present invention. Assays were conducted at room temperature or at 37° C. […] A decrease in the rate of fluorescence change in the presence of inhibitor is indicative of enzyme inhibition. Such methods are known to one skilled in the art. The results of this assay are expressed as the half-maximal inhibitory concentrations (IC50), or the inhibitory constant, Ki.
Compounds were pre-incubated for 30 minutes at 25° C. with human (0.04 nM) Factor XIa in 50 mM HEPES buffer with 150 mM sodium chloride, 5 mM calcium chloride, 0.1% PEG 8000, pH 7.4. Factor XIa enzymatic activity was determined by addition of the substrate glycine-proline-arginine-7-amido-4-trifluoromethylcoumarin (GPR-AFC) and measurement of the fluorescence at 400/505 nm after a 60 minute incubation at 25° C. The % inhibition for each data point was calculated from the data and analyzed using the log (inhibitor) vs. response four parameters equation to determine the half-maximal inhibitory concentrations (IC50). The IC50 were converted to equilibrium inhibitory constants (Ki) using the Cheng-Prusoff equation.

| Structure (SMILES) | IC50 (human Factor XIa) | further results |
| --- | --- | --- |
| CC1(O)CC(CC(C(=O)Nc2ccc(C(=O)O)cc2)c2ccc(-c3c(C(F)F)ccc(Cl)c3F)c[n+]2[O-])C1 (single isomer, unassigned) [Example 83, 2-(1-((4-carboxyphenyl)amino)-3-(3-hydroxy-3-methylcyclobutyl)-1-oxopropan-2-yl)-5-(3-chloro-6-(difluoromethyl)-2-fluorophenyl)pyridine 1-oxide] | – | aPTT (1.5x) [1]: 0.62 µM |
| CC1(O)CC(CC(C(=O)Nc2ccc(C(=O)O)cc2)c2ccc(-c3c(C(F)F)ccc(Cl)c3F)c[n+]2[O-])C1 (single isomer, unassigned) [Example 85, 2-(1-((4-carboxyphenyl)amino)-3-(3-hydroxy-3-methylcyclobutyl)-1-oxopropan-2-yl)-5-(3-chloro-6-(difluoromethyl)-2-fluorophenyl)pyridine 1-oxide] | – | aPTT (1.5x) [1]: 1 µM |
| COc1cc(C(CC2CC2)C(=O)Nc2ccc(C(=O)O)cc2)[n+]([O-])cc1-c1c(C(F)F)ccc(Cl)c1F [Example 69, (S)- and (R)-2-(1-((4-carboxyphenyl)amino)-3-cyclopropyl-1-oxopropan-2-yl)-5-(3-chloro-6-(difluoromethyl)-2-fluorophenyl)-4-methoxypyridine 1-oxide] | – | aPTT (1.5x) [1]: 1.92 µM |
| O=C(O)c1ccc(NC(=O)C(CC2CC2F)c2ccc(-c3c(C(F)F)ccc(Cl)c3F)c[n+]2[O-])cc1 (single isomer, unassigned) [Example 92, 2-(1-((4-carboxyphenyl)amino)-3-(2-fluorocyclopropyl)-1-oxopropan-2-yl)-5-(3-chloro-6-(difluoromethyl)-2-fluorophenyl)pyridine 1-oxide] | – | aPTT (1.5x) [1]: 100 µM |
| COC(=O)c1ccc(NC(=O)C(CC2CCC2)c2ccc(-c3c(C(F)F)ccc(Cl)c3F)c[n+]2[O-])cc1 (single isomer, unassigned) [Example 20, (S)- or (R)-methyl 4-[(2-{5-[3-chloro-6-(difluoromethyl)-2-fluorophenyl]-1-oxidopyridin-2-yl}-3-cyclobutylpropanoyl)amino]benzoate] | > 1000 nM | inhibition at 1 µM (human Factor XIa; @ 1000 nM compound): 13% |
| O=C(O)c1ccc(NC(=O)C(CC2CC(F)C2)c2ccc(-c3c(C(F)F)ccc(Cl)c3F)c[n+]2[O-])cc1 (single isomer, unassigned) [Example 80, 2-(1-((4-carboxyphenyl)amino)-3-(3-fluorocyclobutyl)-1-oxopropan-2-yl)-5-(3-chloro-6-(difluoromethyl)-2-fluorophenyl)pyridine 1-oxide] | 484 nM | – |
| COc1ccc(Cl)c(F)c1-c1ccc(C(CC2CC2)C(=O)Nc2ccc(C(=O)O)cc2)[n+]([O-])c1 (single isomer, unassigned) [Example 10, (S)- or (R)-4-({2-[5-(3-chloro-2-fluoro-6-methoxyphenyl)-1-oxidopyridin-2-yl]-3-cyclopropylpropanoyl}amino) benzoic acid] | > 1000 nM | inhibition at 1 µM (human Factor XIa; @ 1000 nM compound): 13% |
| O=C(O)c1ccc(NC(=O)C(CC2CC2C(F)(F)F)c2ccc(-c3c(OC(F)F)ccc(Cl)c3F)c[n+]2[O-])cc1 (single isomer, unassigned) [Example 110, 2-(1-((4-carboxyphenyl)amino)-1-oxo-3-(2-(trifluoromethyl)cyclopropyl)propan-2-yl)-5-(3-chloro-6-(difluoromethoxy)-2-fluorophenyl)pyridine 1-oxide] | – | inhibition at 1 µM (human Factor XIa; @ 1000 nM compound): 29% |
| COC(=O)c1ccc(NC(=O)C(CC2CC2)c2ccc(-c3c(C(F)F)ccc(Cl)c3F)c[n+]2[O-])cc1 (single isomer, unassigned) [Example 113, 5-(3-chloro-6-(difluoromethyl)-2-fluorophenyl)-2-(3-cyclopropyl-1-((4-(methoxycarbonyl)phenyl)amino)-1-oxopropan-2-yl)pyridine 1-oxide] | 1000 nM | FXIa % Inh. @ 1000 nM (human Factor XIa; @ 1000 nM compound): 6% |
| Cc1cc(NC(=O)C(CC2CC2)c2ccc(-c3c(C(F)F)ccc(Cl)c3F)c[n+]2[O-])ccc1C(=O)O (single isomer, unassigned) [Example 121, 2-(1-((4-carboxy-3-methylphenyl)amino)-3-cyclopropyl-1-oxopropan-2-yl)-5-(3-chloro-6-(difluoromethyl)-2-fluorophenyl)pyridine 1-oxide] | 620 nM | – |
| O=C(O)c1ccc(NC(=O)[C@@H](CC2CCC2)c2ccc(-c3c(C(F)F)ccc(Cl)c3F)c[n+]2[O-])cc1 (mixture of isomers) [Example 4, (S)- and (R)-2-(1-((4-Carboxyphenyl)amino)-3-cyclobutyl-1-oxopropan-2-yl)-5-(3-chloro-6-(difluoromethyl)-2-fluorophenyl)pyridine 1-oxide] | – | aPTT (1.5x) [1]: 0.55 µM |
| CC(C1CC1)C(C(=O)Nc1ccc(C(=O)O)cc1)c1ccc(-c2c(OC(F)F)ccc(Cl)c2F)c[n+]1[O-] (single isomer, unassigned) [Example 57, 2-(1-((4-carboxyphenyl)amino)-3-cyclopropyl-1-oxobutan-2-yl)-5-(3-chloro-6-(difluoromethoxy)-2-fluorophenyl)pyridine 1-oxide] | > 1000 nM | inhibition at 1 µM (human Factor XIa; @ 1000 nM compound): 48% |

The remaining molecules from weak to strong by IC50 (human Factor XIa), led by results:

| IC50 (human Factor XIa) | Structure (SMILES) | further results |
| --- | --- | --- |
| 334 nM | CC(C1CC1)C(C(=O)Nc1ccc(C(=O)O)cc1)c1ccc(-c2c(OC(F)F)ccc(Cl)c2F)c[n+]1[O-] (single isomer, unassigned) [Example 58, 2-(1-((4-carboxyphenyl)amino)-3-cyclopropyl-1-oxobutan-2-yl)-5-(3-chloro-6-(difluoromethoxy)-2-fluorophenyl)pyridine 1-oxide] | – |
| 227 nM | C[C@]1(O)CC[C@H](CC(C(=O)Nc2ccc(C(=O)O)cc2)c2ccc(-c3c(OC(F)F)ccc(Cl)c3F)c[n+]2[O-])CC1 (single isomer, unassigned) [Example 42, 2-(1-((4-carboxyphenyl)amino)-3-((1r,4r)-4-hydroxy-4-methylcyclohexyl)-1-oxopropan-2-yl)-5-(3-chloro-6-(difluoromethoxy)-2-fluorophenyl)pyridine 1-oxide] | – |
| 155 nM | CC1CC1C[C@H](C(=O)Nc1ccc(C(=O)O)cc1)c1ccc(-c2c(OC(F)F)ccc(Cl)c2F)c[n+]1[O-] (single isomer, unassigned) [Example 53] | – |
| 153 nM | CC1CCC1CC(C(=O)Nc1ccc(C(=O)O)cc1)c1ccc(-c2c(OC(F)F)ccc(Cl)c2F)c[n+]1[O-] (single isomer, unassigned) [Example 103, 2-(1-((4-carboxyphenyl)amino)-3-(2-methylcyclobutyl)-1-oxopropan-2-yl)-5-(3-chloro-6-(difluoromethoxy)-2-fluorophenyl)pyridine 1-oxide] | – |
| 93.6 nM | O=C(O)c1ccc(NC(=O)C(CC2CC2C(F)(F)F)c2ccc(-c3c(C(F)F)ccc(Cl)c3F)c[n+]2[O-])cc1 (single isomer, unassigned) [Example 86, 2-(1-((4-carboxyphenyl)amino)-1-oxo-3-(2-(trifluoromethyl)cyclopropyl)propan-2-yl)-5-(3-chloro-6-(difluoromethyl)-2-fluorophenyl)pyridine 1-oxide] | – |
| 62 nM | CC(C1CC1)C(C(=O)Nc1ccc(C(=O)O)cc1)c1ccc(-c2c(OC(F)F)ccc(Cl)c2F)c[n+]1[O-] (single isomer, unassigned) [Example 60, 2-(1-((4-carboxyphenyl)amino)-3-cyclopropyl-1-oxobutan-2-yl)-5-(3-chloro-6-(difluoromethoxy)-2-fluorophenyl)pyridine 1-oxide] | – |
| 55 nM | CC1CC1C[C@H](C(=O)Nc1ccc(C(=O)O)cc1)c1ccc(-c2c(C(F)F)ccc(Cl)c2F)c[n+]1[O-] (single isomer, unassigned) [Example 61] | – |
| 47 nM | O=C(O)c1ccc(NC(=O)C(CC2CCC2)c2ccc(-c3c(OC(F)F)ccc(Cl)c3F)c[n+]2[O-])cc1 (single isomer, unassigned) [Example 14, (S)- or (R)-4-[(2-{5-[3-chloro-6-(difluoromethoxy)-2-fluorophenyl]-1-oxidopyridin-2-yl}-3-cyclobutylpropanoyl)amino] benzoic acid] | – |
| 11 nM | Cc1cc(C(CC2CC2)C(=O)Nc2ccc(C(=O)O)cc2)[n+]([O-])cc1-c1c(OC(F)F)ccc(Cl)c1F [Example 67, (S)- and (R)-2-(1-((4-carboxyphenyl)amino)-3-cyclopropyl-1-oxopropan-2-yl)-5-(3-chloro-6-(difluoromethoxy)-2-fluorophenyl)-4-methylpyridine 1-oxide] | – |
